Assay results published in article PMC9408991, “Antitumor Effects of a New Retinoate of the Fungal Cytotoxin Illudin M in Brain Tumor Models” (International Journal of Molecular Sciences, 2022).
Like-named read-outs stand apart in the source and are kept apart here.

Assays:
Format in all cases: cell-based
HL60 leukemia cells = test: MTT cell viability assay, HL60 leukemia; details: Homo sapiens, read-out: Inhibitory concentration IC50
Protocol: (§1) 518A2 (Department of Radiotherapy, Medical University of Vienna, Vienna, Austria) melanoma, KB-V1^Vbl (ACC-149) cervix carcinoma, MCF-7^Topo (ACC-115) breast carcinoma, HT29 (ACC-299) colon carcinoma were cultivated in Dulbecco’s Modified Eagle Medium (DMEM) supplemented with 10% fetal bovine serum and 1% antibiotic-antimycotic at 37 °C, 5% CO2, and 95% humidity. To keep MCF-7^Topo and KB-V1^Vbl cells resistant, the maximum-tolerated doses of topotecan or vinblastine were added to the cell culture medium 24 h after every passage. The human HL60 leukemia cells were obtained from the German National Resource Center for Biological Material (DSMZ), Braunschweig. Neuroectodermal stem cells NE-4C (ATCC No. CRL-2925), primary mouse astrocytes, rat glioma C6 (ATCC No. CCL-107) and human glioma U87 (ATCC No. HTB-14) were used.
(§2) Non-GBM cells (5 × 10^4 cells/mL, 100 µL/well) were grown in 96-well plates for 24 h. […] After the addition of 12.5 µL of a 0.5% MTT solution in PBS, the cells were incubated for 3 h at 37 °C so that the water-soluble MTT could be converted to formazan crystals. Then, the plates were centrifuged (300× g, 5 min, 4 °C), the medium withdrawn, and the formazan dissolved in 25 µL of DMSO containing 10% sodium dodecylsulfate (SDS) and 0.6% acetic acid for at least 2 h at 37 °C. In the case of the HL60 cells, after 2 h, the precipitate of formazan crystals was redissolved in a 10% solution of SDS in DMSO containing 0.6% acetic acid.

[1] = tested on: KBv1^+Vbl cervix carcinoma cells; test: MTT cell viability assay, KBv1+Vbl cervix carcinoma; details: Homo sapiens, KB-V1/Vbl, read-out: Inhibitory concentration IC50
Protocol: as §1, §2

U87 glioma cells = test: MTT cell viability assay, U87 glioma; details: Homo sapiens, U-87 MG, read-out: Inhibitory concentration IC50
Protocol: as §1
[…] Afterward, 10 µL of a 5 mg/mL MTT solution in PBS was added to the cells for 3 h at 37 °C. Then, the spheres were centrifuged shortly to collect the cells on the bottom of the plate, and the medium was removed by careful pipetting for both adherently grown and floating sphere GBM cultures. Afterward, formazan was dissolved in a mixture (24:1 v:v) of isopropanol and 1 M HCl using 100 µL for adherent cells by shaking the plates for at least 20 min. The absorbance of formazan (λ = 570 nm), and background (λ = 630 nm) was measured with a microplate reader (Tecan Spark, Tecan Deutschland GmbH, Crailsheim, Germany).

primary neurons = test: MTT cell viability assay, primary neurons; details: Mus musculus, Primary neuron, read-out: Inhibitory concentration IC50
Protocol: (§3) NE-4C cells derived from the anterior brain vesicles of p53-deficient 9-day-old mouse embryos were maintained in Minimum Essential Medium (MEM; Sigma Aldrich, Taufkirchen, Germany) supplemented with 5% fetal calf serum (FCS; Invitrogen-Gibco, Carlsbad, CA, USA), 4 mM glutamine (Sigma-Aldrich, Taufkirchen, Germany) and 40 ug/mL gentamycin (Chinoin, Budapest, Hungary). For maintenance, subconfluent cultures were regularly split by trypsinization (0.05 w/v% trypsin in PBS) into poly-L-lysine-coated Petri dishes. Primary astrocytes were isolated from whole brains of neonatal (P0-P3) mice, as described earlier. In brief, meninges were removed, and the tissue pieces were subjected to enzymatic dissociation, using 0.05% w/v trypsin and 0.05% w/v DNase for 10 min at room temperature. The cells were plated onto poly-L-lysine coated plastic surfaces and grown in MEM supplemented with 10% fetal calf serum, 4 mM glutamine and 40 ug/mL gentamycin. Primary neuronal cultures were prepared from embryonic (E15–E16) mouse (CD1) forebrains, as described earlier. In brief, cell suspensions were prepared by mechanical dissociation over a nylon mesh with a pore diameter of 40–42 μm. The cells were seeded at 10^5 cells/cm^2 density onto PLL-coated surfaces. The cultures were maintained in MEM supplemented with 5% FCS, 4 mM glutamine, 40 µg/mL gentamicin and 2.5 μg/mL amphotericin B (Sigma). In co-culture experiments, U87 glioma cells were seeded onto established neuronal cultures at DIV3 in a 25,000 cell/cm^2 density.
as §2

primary astrocytes = test: MTT cell viability assay, primary astrocytes; details: Mus musculus, Astrocyte, read-out: Inhibitory concentration IC50
Protocol: as §3, §2

[2] = tested on: NE-4C neuroectodermal stem cells; test: MTT cell viability assay, NE-4C neuroectodermal stem cells; details: Mus musculus, read-out: Inhibitory concentration IC50
Protocol: as §3, §2

[3] = tested on: NCH644^GFP+ glioma stem-like cells; test: Ex vivo tumor growth assay on adult organotypic brain slice cultures
Description: For further investigation of drug efficacy and selectivity, an ex vivo tumor growth assay employing organotypic brain slice cultures of adult murine brains were used. For this purpose, GFP-expressing NCH644 (NCH644^GFP+) glioma stem-like cells were transplanted onto these slices, and after 1 day, the treatment was started and renewed three times per week, similar to our previous studies. These cultures are suitable ex vivo models, which simulate original brain architecture and the presence of vessels, including angiogenesis and microvascular proliferation as well as specific homing of GBM cells toward those vessels, while requiring much fewer laboratory animals when compared with common in vivo animal drug tests.
Adult organotypic brain slice culture was carried out as described previously. Briefly, the brains from adult C57BL/6 J (Envigo, Horst, The Netherlands) were dissected, and dura mater was removed after the mice were euthanized. Subsequently, mouse brains were placed in warm (35–40 °C) 2% low-melting agarose (Carl Roth, Karlsruhe, Germany) and cut on a Vibratome VT1000 (Leica, Wetzlar, Germany) in 150 µm thick sections. These sections were placed on Milli-cell culture inserts (Merck KGaA, Darmstadt, Germany) and cultured in 6-well plates using FCS-free medium consisting of DMEM/F12 supplied with 1× B27 and 1× N2 supplement and 100 U/mL penicillin and 100 µg/mL streptomycin (all from Gibco, Darmstadt, Germany). One day later, multiple spheres were placed on the mouse brain slices. Adequate spheres were prepared by seeding 275.000 NCH644^GFP+ cells in a total volume of 5 mL in a T25 flask. One day after sphere transplantation, pictures were taken (day 0), and the treatment was started, which was refreshed 3 times per week. Tumor growth was evaluated using FIJI, after which pictures were taken regularly with a Nikon SMZ25 stereomicroscope equipped with a P2-SHR Plan Apo 2 × objective operated by NIS elements software. As the tumor size was normalized to the size on day 0, growth curves were created.

[4] = 5 µM, treatment renewed three times per week

SMILES	IC50 (HL60 leukemia cells; HL-60, HL60, 24 h exposure) [nM]	IC50 (HL60 leukemia cells; HL-60, HL60, 48 h exposure) [nM]	IC50 ([1]; 24 h exposure) [nM]	IC50 ([1]; 48 h exposure) [nM]	IC50 (U87 glioma cells; U87, 24 h exposure) [nM]	IC50 (U87 glioma cells; U87, 48 h exposure) [nM]	IC50 (primary neurons; 24 h exposure) [nM]	IC50 (primary neurons; 48 h exposure) [nM]	IC50 (primary astrocytes; 24 h exposure) [nM]	IC50 (primary astrocytes; 48 h exposure) [nM]	IC50 ([2]; 24 h exposure) [nM]	IC50 ([2]; 48 h exposure) [nM]	antitumor activity (tumor growth normalized to day 0) [3, 4]	antitumor activity (tumor growth normalized to day 0) ([3]; 0.1 and 0.5 µM)	toxicity in the tumor-free regions of the brain slices ([3]; organotypic brain slices)
CC1=C2C(=CC(C)(C)[C@@H]2O)C(=O)[C@](C)(O)C12CC2 [Compound 1, illudin M]	7 ± 2	1	3 ± 1	2	630 ± 40	130 ± 30	600 ± 120	190 ± 40	1500 ± 400	200 ± 30	400 ± 100	50 ± 20	showed antitumor activity	–	–
CC1=C(/C=C/C(C)=C/C=C/C(C)=C/C(=O)O[C@@H]2C3=C(C)C4(CC4)[C@@](C)(O)C(=O)C3=CC2(C)C)C(C)(C)CCC1 [Compound 2, illudin M retinoate]	6800 ± 2800	4500 ± 1100	1600 ± 400	1200 ± 100	37000 ± 3000	2700 ± 700	26000 ± 1000	14000 ± 2000	45000 ± 2000	33000 ± 4000	7000 ± 3200	2000 ± 1200	showed antitumor activity	significantly reduced	no signs of toxicity
